From US9925398B2, “Angiogenic peptide” (NOVACELL TECHNOLOGY INC., priority 2008, dated 2018) come the findings set out here.

The test system of assay [1] is MS-1 cells. Nature of the assay: Suppression of SFKLRY-NH2-induced [Ca2+]i increase in MS-1 cells by inhibitors. The settings on record: for effect on peptide-induced intracellular calcium mobilization: 10 μM, 30 min preincubation, 1 μM SFKLRY-NH2. The class given is cell-based, murine. On the procedure: FIGS. 3A-3B show BAPTA, U73122 and PTX suppressed SFKLRY-NH2-induced [Ca^2+]i increase in MS-1 cells. […] (A) The cells were pre-incubated in DMEM containing 10 μM BAPTA-AM with Fluo-4/AM for 30 min at 37° C. Cells were suspended in Ca^2+-free Locke's solution containing 0.2 mM EGTA and treated with indicated concentrations of SFKLRY-NH2 (SEQ ID NO: 2). The change in fluorescence intensity was determined with excitation at 488 nm and the emission at 520 nm. (B) Cells were preincubated with or without U73122 (10 μM), U73433 (10 μM) for 30 min, and PTX (100 ng/mL) for 2 h with Fura-2, respectively. Fura-2-loaded cells were then suspended in Ca^2+-free Locke's solution and then treated with 1 μM SFKLRY-NH2 (SEQ ID NO: 2). The data are represent means±3 independent experiments each performed in triplicate. *P<0.05.
Background: A change in cytosolic calcium serves as a functional read-out for many receptors and channels.

Assay [2] has as its system MS-1 cells. Nature of the assay: [Ca2+]i mobilization assay in MS-1 cells. To be noted: three experiments, read-out: Mean EC50 (μM), dose-dependent changes in intracellular Ca2+. It counts as cell-based, murine. How it is done: Cells were incubated with 4 μM Fura-2 AM and 250 μM sulfinpyrazone in serum-free DMEM medium at 37° C. for 30 min with continuous stirring. The cells were then washed with Locke's solution (M. Faehling, et al., FASEB J 16 (2002), pp. 1805-1807) and diluted to 2×10^6 cells/mL. 50 μL aliquots of cell suspension were added to each well of a 96-well plate, and the change in fluorescence ratio was determined at dual excitation wavelengths of 340 and 380 nm and emission wavelength of 500 nm following addition of peptides. Plates were read immediately following the addition of peptide pools, resulting in a time delay of approximately 5 s between peptide addition and detection by the FLEXstation (Molecular Devices). Negative and positive controls were run simultaneously with test samples to ensure that all samples were subjected to identical conditions. The calibration of the fluorescence ratio in terms of [Ca^2+]i was performed according to Grynkiewicz et al. J Biol Chem 260 (1985), pp. 3440-3450.
To identify peptides that stimulate intracellular calcium mobilization in murine endothelial cells (MS-1 cells), the inventors screened 114 pools of C-terminally amidated synthetic hexapeptides.

Assay [3] concerns Rat aortic explants. Nature of the assay: Aortic ring assay (vessel sprouting ex vivo). To be noted: 7 days. The class given is cell-based. How it is done: The method developed by Nicosia and Ottinetti in In Vitro Cell Dev Biol 26 (1990), pp. 119-128 was used with some modifications. Aortas were harvested from 6-week-old Sprague-Dawley rats. After removing the surrounding fibro-adipose tissues, the rings were immersed in Matrigel in wells within culture dishes. The aortic rings were cultured (5% CO2, 37° C.) in serum-free M199 containing SFKLRY-NH2 (SEQ ID NO: 2), S1P, FYSRLK-NH2, or VEGF in the presence or absence of PTX or U73122. On day 7, sprouting from aortic explants was measured.
To address whether SFKLRY-NH2 (SEQ ID NO: 2) plays a role in sprouting of vascular endothelial cells ex vivo, aortic rings were analyzed in the presence of various stimuli including 1 μM SFKLRY-NH2 (SEQ ID NO: 2), 10 ng/mL VEGF, 10 nM S1P, and 10% FBS. […] Rat aortic explants in Matrigel were incubated with M-199 harboring SFKLRY-NH2 (SEQ ID NO: 2) (1 μM), FYSRLK-NH2 (1 μM), S1P (10 nM), VEGF (10 ng/mL), SFKLRY-NH2 (SEQ ID NO: 2) (1 μM) with U73122 (10 μM) or PTX (50 ng/mL), or 10% FBS and photographed after incubation for 7 days. Three independent experiments were then conducted, each in duplicate.

Where a SMILES comes first, the peptide text is derived from it. [ ]: non-standard residue; d: D form. A value given as a limit tells only on which side of the number the result lay.

On to `CC(=O)OCOC(=O)CN(CC(=O)OCOC(C)=O)c1ccccc1OCCOc1ccccc1N(CC(=O)OCOC(C)=O)CC(=O)OCOC(C)=O` [BAPTA-AM, 1,2-bis(2-aminophenoxy)ethane-N,N,N′,N′-tetraacetoxymethyl ester], for which, in assay [1] (10 μM preloading, Ca2+-free Locke's solution with 0.2 mM EGTA), the “effect on peptide-induced [Ca2+]i increase” value is recorded as “completely abolished”. Regarding `CC(C)C[C@H](NC(=O)[C@H](CCCCN)NC(=O)[C@H](Cc1ccccc1)NC(=O)[C@@H](N)CO)C(=O)N[C@@H](CCCNC(=N)N)C(=O)N[C@@H](Cc1ccc(O)cc1)C(=O)O` [SEQ ID NO 1, SFKLRY-COOH] (H-SFKLRY-OH; N-terminus assumed), the EC50 (in general, the concentration needed to bring the measured effect to its halfway point) in assay [2] is above 10 µM. The same measure, in the same setting: as for `CC(C)C[C@H](NC(=O)[C@H](CCCCN)NC(=O)[C@H](Cc1ccccc1)NC(=O)[C@@H](N)CO)C(=O)N[C@@H](CCCNC(=N)N)C(=O)N[C@@H](Cc1ccc(O)cc1)C(N)=O` [SEQ ID NO 2, SFKLRY-NH2] (H-SFKLRY-NH2; N-terminus assumed), the figure is 1.21 µM. As to `CC(C)C[C@H](NC(=O)[C@H](CCCCN)NC(=O)[C@H](Cc1ccccc1)NC(=O)[C@@H](N)CO)C(=O)N[C@H](CCCNC(=N)N)C(=O)N[C@@H](Cc1ccc(O)cc1)C(N)=O` [SEQ ID NO 7, SFKLrY-NH2(d-form)] (H-SFKL[dR]Y-NH2; N-terminus assumed), the EC50 in assay [2] was above 100 µM.

For `CC(C)C[C@H](NC(=O)[C@H](CCCCN)NC(=O)[C@H](Cc1ccccc1)NC(=O)[C@@H](N)CO)C(=O)N[C@@H](CCCNC(=N)N)C(=O)N[C@H](Cc1ccc(O)cc1)C(N)=O` [SEQ ID NO 8, SFKLRy-NH2(d-form)] (H-SFKLR[dY]-NH2; N-terminus assumed), the EC50 in assay [2] is 1.14 µM. Still for that read-out and setting: with `CC(C)C[C@H](NC(=O)[C@H](CCCCN)NC(=O)[C@H](Cc1ccccc1)NC(=O)[C@@H](N)CO)C(=O)N[C@@H](CCCNC(=N)N)C(N)=O` [SEQ ID NO 12, SFKLR-NH2] (H-SFKLR-NH2; N-terminus assumed) the figure was 6.19 µM; with `CC(C)C[C@H](NC(=O)[C@H](CCCCN)NC(=O)[C@H](Cc1ccccc1)NC(=O)[C@@H](N)CO)C(N)=O` [SEQ ID NO 13, SFKL-NH2] (H-SFKL-NH2; N-terminus assumed), above 50 µM; with `CC(C)C[C@H](NC(=O)[C@H](CCCNC(=N)N)NC(=O)[C@H](Cc1ccccc1)NC(=O)[C@@H](N)CO)C(=O)N[C@@H](CCCNC(=N)N)C(=O)N[C@@H](Cc1ccc(O)cc1)C(N)=O` [SEQ ID NO 15, SFRLRY-NH2] (H-SFRLRY-NH2; N-terminus assumed), 0.97 µM.

Turning to `CC(C)C[C@H](NC(=O)[C@H](CCCCN)NC(=O)[C@H](Cc1ccccc1)NC(=O)[C@@H](N)CO)C(=O)N[C@@H](CCCNC(=N)N)C(=O)N[C@@H](CCCNC(=N)N)C(N)=O` [SEQ ID NO 16, SFKLRR-NH2] (H-SFKLRR-NH2; N-terminus assumed), the EC50 in assay [2] was found to be 2.66 µM.

For `CC[C@H](C)[C@H](NC(=O)[C@H](Cc1ccccc1)NC(=O)[C@@H](N)CO)C(=O)N[C@@H](CC(C)C)C(=O)N[C@@H](CCCNC(=N)N)C(=O)N[C@@H](Cc1ccc(O)cc1)C(N)=O` [SEQ ID NO 17, SFILRY-NH2] (H-SFILRY-NH2; N-terminus assumed), the EC50 in assay [2] amounted to 0.99 µM. On the same count and under the same terms, as for `CC[C@H](C)[C@H](NC(=O)[C@H](Cc1ccccc1)NC(=O)[C@@H](N)CO)C(=O)N[C@@H](CC(C)C)C(=O)N[C@@H](CCCNC(=N)N)C(=O)N[C@@H](CCCNC(=N)N)C(N)=O` [SEQ ID NO 18, SFILRR-NH2] (H-SFILRR-NH2; N-terminus assumed), the figure is 0.97 µM. On to `CC(C)C[C@H](NC(=O)[C@H](CCCCN)NC(=O)[C@H](Cc1ccccc1)NC(=O)[C@@H](N)CO)C(=O)N[C@@H](CCCNC(=N)N)C(=O)N[C@@H](Cc1c[nH]c2ccccc12)C(N)=O` [SEQ ID NO 19, SFKLRW-NH2] (H-SFKLRW-NH2; N-terminus assumed), for which the EC50 in assay [2] was determined as 2.37 µM. Still for that read-out and setting: with `CC[C@H](C)[C@H](NC(=O)[C@H](Cc1ccccc1)NC(=O)[C@@H](N)CO)C(=O)N[C@@H](CC(C)C)C(=O)N[C@@H](CCCNC(=N)N)C(=O)N[C@@H](Cc1c[nH]c2ccccc12)C(N)=O` [SEQ ID NO 20, SFILRW-NH2] (H-SFILRW-NH2; N-terminus assumed) the figure was 1.98 µM. Still for that read-out and setting: as for `CC(C)C[C@H](NC(=O)[C@H](CCCCN)NC(=O)[C@H](Cc1ccccc1)NC(=O)[C@@H](N)CO)C(=O)N[C@@H](CCCNC(=N)N)C(=O)N[C@@H](Cc1ccccc1)C(N)=O` [SEQ ID NO 21, SFKLRF-NH2] (H-SFKLRF-NH2; N-terminus assumed), the figure is 3.16 µM; as for `CC[C@H](C)[C@H](NC(=O)[C@H](Cc1ccccc1)NC(=O)[C@@H](N)CO)C(=O)N[C@@H](CC(C)C)C(=O)N[C@@H](CCCNC(=N)N)C(=O)N[C@@H](Cc1ccccc1)C(N)=O` [SEQ ID NO 22, SFILRF-NH2] (H-SFILRF-NH2; N-terminus assumed), 2.01 µM; as for `CC(C)C[C@H](NC(=O)[C@H](CCCCN)NC(=O)[C@H](Cc1ccccc1)NC(=O)[C@@H](N)CO)C(=O)N[C@@H](CCCNC(=N)N)C(=O)N[C@@H](Cc1c[nH]cn1)C(N)=O` [SEQ ID NO 23, SFKLRH-NH2] (H-SFKLRH-NH2; N-terminus assumed), 3.6 µM. Still for that read-out and setting: as for `CC(C)C[C@H](NC(=O)[C@H](CCCCN)NC(=O)[C@H](Cc1ccccc1)NC(=O)[C@@H](N)[C@@H](C)O)C(=O)N[C@@H](CCCNC(=N)N)C(=O)N[C@@H](Cc1ccc(O)cc1)C(N)=O` [SEQ ID NO 24, TFKLRY-NH2] (H-TFKLRY-NH2; N-terminus assumed), the figure is 3.87 µM. In the case of `COc1ccc2c(c1)CC[C@@H]1[C@@H]2CC[C@]2(C)[C@@H](NCCCCCCN3C(=O)C=CC3=O)CC[C@@H]12` [U73122], the “effect on peptide-induced intracellular calcium mobilization” value in assay [1] is listed as “completely abolished”. Also, the “effect on vessel sprouting promoted by SFKLRY-NH2” value in assay [3] (10 μM co-treatment with SFKLRY-NH2 1 μM) is given as “markedly attenuated”. With `COc1ccc2c(c1)CC[C@@H]1[C@@H]2CC[C@]2(C)[C@@H](NCCCCCCN3C(=O)CCC3=O)CC[C@@H]12` [U73433], the “effect on peptide-induced intracellular calcium mobilization” value in assay [1] is listed as “little inhibitory effect”. As to Pertussis toxin [PTX], in assay [1] (100 ng/mL for 2 h prior to SFKLRY-NH2), the “effect on peptide-dependent intracellular Ca2+ mobilization” value is “remarkably attenuated”. Besides, the “effect on vessel sprouting promoted by SFKLRY-NH2” value in assay [3] (50 ng/mL co-treatment with SFKLRY-NH2 1 μM) is given as “markedly attenuated”.
